One test has as its system P388. Description: Cytotoxicity against mouse P388 cells. Format: functional. As to conditions: read-out: ED50 (the source's name).
The next test relates to KB. Description: Cytotoxicity against human KB cells. Format: functional. The conditions noted are these: read-out: ED50 (the source's name).

In brackets after ≈: the same amount, converted by molar mass.

Regarding `CO[C@@H]1C[C@H]2C(C)(C)CCC[C@]2(C)C2=C1C(=O)C(C(C)C)=C(O)C2=O`, the EC50 in the test on P388 is 4.8 µg/mL (≈ 13.9 µM); in the test with KB, 13 µg/mL (≈ 37.5 µM).

`CC(C)C1=C(O)C(=O)C2=C(C1=O)[C@H](O)C[C@H]1C(C)(C)CCC[C@]21C` [HORMINONE]: the EC50 in the test with P388 was found to be 4.6 µg/mL (≈ 13.8 µM); in the test on KB, 20.2 µg/mL (≈ 60.8 µM).

For `CC(C)C1=C(O)C(=O)C2=C(C=C[C@H]3C(C)(C)CCC[C@]23C)C1=O`, the EC50 with P388 worked out at 1.6 µg/mL (≈ 5.09 µM); with KB, 5.7 µg/mL (≈ 18.1 µM).
